{"source": "patent US6046228A", "about": "“Anti-viral pharmaceutical compositions containing saturated 1,2-dithiaheterocyclic compounds and uses thereof” (priority 1999, dated 2000)", "key": {"HIV-1 p7NC protein": {"target": "T1, HIV-1 p7NC protein (Human immunodeficiency virus type 1 group M subtype B, UniProt P04591)", "T1 construct": "recombinant HIV-1 p7NC protein", "assay": "Trp37 zinc finger fluorescence assay (zinc ejection from p7NC)", "format": "biochemical", "details": "for p7NC Trp37 Assay (RFU): 25 μM compound; for loss of Trp37 fluorescence of p7NC: 25 μM"}, "HIV-1RF": {"system": "HIV-1RF", "assay": "effect of increasing multiplicity of infection, CEM-SS cells", "format": "cell-based", "details": "for EC50: Human immunodeficiency virus 1, CEM-SS", "procedure": "Initial anti-HIV screening was performed with CEM-SS cells and HIV-1RFusing the XTT cytoprotection assay as previously described (Weislow et al., J. National Cancer Inst. 81: 577-586, (1989)). HIV-1 isolates included common laboratory stains (RF, IIIB and MN), as well as a panel of HIV-1 clinical isolates (Cushman et al., J. Med. Chem. 37: 3040-3050, (1994)). The pyridone-resistant HIV-1A17 isolate (Nunberg et al., J. Virol., 65: 4887-4892 (1991)) was obtained from Emilio Emini at Merck Sharpe and Dohme Laboratories. Phytohemagglutinin-stimulated human peripheral blood lymphocytes (PBLs) and fresh monocyte-macrophage (Mono/MF) cultures were prepared and utilized in antiviral assays as previously described (Rice et al., Proc. Nat'l. Academy Science, USA 90: 9721-9724, (1993)); (Cushman et al., J. Med. Chem. 37: 3040-3050, (1994)). EC50 values for these cultures indicate the drug concentration that provided a 50% reduction in viral p24 production. […] The compounds can be synthesized according to the teachings of Singh et al., Sulfur Letters 8: 107-114, (1988). The 4,5-cis-dihydroxy(1,1-dioxy-1,2,-dithiohexane) compound (NSC 624151) has been abbreviated as 624151 for convenience. MT-2, MT-4, U1, HeLa-CD4-LTR-β-gal and 174xCEM cells were obtained from the AIDS Research and Reference Program (National Institute of Allergy and Infectious Disease, National Institutes of Health, Bethesda, Md. USA), as were the HIV-2MS and the AZT-resistant HIV-1G910-6 isolates."}, "HIV-1 p66-p51 RT": {"target": "T2, HIV-1 p66-p51 RT (Human immunodeficiency virus type 1 group M subtype B, UniProt P04585)", "T2 construct": "the purified HIV-1 p66-p51 RT enzyme", "assay": "reverse transcriptase activity assay", "format": "biochemical", "details": "for inhibition of HIV-1 RT: in words", "procedure": "The effects of 624151 on the in vitro activity of purified RT was determined by measurement of incorporation of [^3 H]TTP onto the poly(rA):oligo(dT)(rAdT) or poly(rC):oligo(dG)(rCdG) homopolymer template/primer systems. Samples (5 μL) were blotted onto DE81 paper, washed with 5% dibasic sodium phosphate as previously described (Buckheit et al., Antiviral Res. 21:247, (1993)), and then quantitated on a Packard Matrix 9600 dual beam counter. 3'-Azido-3'-deoxythymidine-5 '-triphosphateand UC38 (NSC 629243) served as positive controls for inhibition of RT. HIV-1 protease activity was quantitated by a reversed phase HPLC assay utilizing the […]Amide substrate (Multiple Peptide Systems, San Diego, Calif.) as previously described in Rice et al. (Proc. Nat'l. Academy of Science USA 9: 9721-9724, (1993))."}}, "data": [{"smiles": "O=S1(=O)C[C@H](O)[C@H](O)CS1", "note": "(relative stereo) [NSC 624151, cis-1,1-dioxo[1,2]dithiane-4,5-diol]", "values": [{"measurement": "p7NC Trp37 Assay (RFU)", "setting": "HIV-1 p7NC protein; 0 min", "result": 295, "unit": "RFU"}, {"measurement": "p7NC Trp37 Assay (RFU)", "setting": "HIV-1 p7NC protein; 3 min", "result": 136, "unit": "RFU"}, {"measurement": "p7NC Trp37 Assay (RFU)", "setting": "HIV-1 p7NC protein; 10 min", "result": 75, "unit": "RFU"}, {"measurement": "p7NC Trp37 Assay (RFU)", "setting": "HIV-1 p7NC protein; 30 min", "result": 42, "unit": "RFU"}, {"measurement": "loss of Trp37 fluorescence of p7NC", "setting": "HIV-1 p7NC protein; FIG. 1(A), in words", "result": "time dependent loss of fluorescence"}, {"measurement": "loss of Trp37 fluorescence of p7NC", "setting": "HIV-1 p7NC protein; FIG. 1(A), in words, listed as 624151", "result": "time-dependent loss of fluorescence"}, {"measurement": "zinc ejection", "setting": "HIV-1 p7NC protein; FIG. 1(A), in words", "result": "promotes zinc ejection"}, {"measurement": "reactivity with the zinc fingers", "setting": "HIV-1 p7NC protein; in words", "result": "reacted aggressively with the p7NC protein zinc fingers"}, {"measurement": "EC50", "setting": "HIV-1RF; MOI 0.01", "result": 8.4, "unit": "µM"}, {"measurement": "EC50", "setting": "HIV-1RF; MOI 0.02", "result": 17.1, "unit": "µM"}, {"measurement": "EC50", "setting": "HIV-1RF; MOI 0.04", "result": 16.8, "unit": "µM"}, {"measurement": "EC50", "setting": "HIV-1RF; MOI 0.08", "result": 27.7, "unit": "µM"}, {"measurement": "EC50", "setting": "HIV-1RF; MOI 0.16", "result": 21.3, "unit": "µM"}, {"measurement": "EC50", "setting": "HIV-1RF; MOI 0.32", "result": 21, "unit": "µM"}, {"measurement": "effect of increasing the MOI on activity", "setting": "HIV-1RF; in words", "result": "relatively resistant to the effects of increasing the viral MOI"}, {"measurement": "inhibition of HIV-1 RT", "setting": "HIV-1 p66-p51 RT; rAdT template/primer", "result": "not inhibited"}, {"measurement": "IC50", "setting": "HIV-1 p66-p51 RT; rAdT, read-out: RT Activity rAdT ID50", "result": "> 100", "unit": "µM"}, {"measurement": "inhibition of HIV-1 RT", "setting": "HIV-1 p66-p51 RT; rCdG template/primer", "result": "not inhibited"}]}]}
